# Literature values, collected in patent US10537636B2, “Treatment of cancer with therapeutic monoclonal antibody specific for a tumor associated antigen and an immune adjuvant” (Oncoquest, Inc., priority 2017, dated 2020).
# Test system: advanced ovarian cancer
# Conditions: mono-immunotherapy following front-line chemotherapy
substance,measurement,value
oregovomab,clinical outcome,failed to improves clinical outcome
